Data published in US20240228481A1, “NOVEL SULFONAMIDE SERIES OF QR2 INHIBITORS TO TACKLE OXIDATIVE STRESS AND COGNITIVE DECLINE” (CARMEL HAIFA UNIVERSITY ECONOMIC CORPORATION LTD., priority 2021, published 2024).
Structures can show the parent of a compound that is named as a salt.

Tests used:
Solubility in water = assay type: physicochemical; settings: HCl salt
From the text: In order to enable water-solubility so that an inhibitor could be easily applied to crystalized QR2, and to enable oral administration of the inhibitor and eliminate undesirable formulations, HCl was conjugated to YB-537 (see step 6 in methods section ‘Synthesis of Novel QR2 Inhibitors’ and Table 3). […] Using the water-soluble YB-537 to determine ligand-target interactions, purified human QR2 was co-crystalized in the presence of the inhibitor (FIG. 3A). […] YB-537 is bound to each of the monomers, and interacts with amino acids from both monomers, as well as with FAD. The plane of YB-537 stacks up parallel to the isoalloxazine ring of the FAD and the average distance between the planes of the two rings is 3.5 Å. Each FAD moiety forms 17 contacts within 3.5 Å to atoms from YB-537 and 48 contacts to 17 amino acids from one monomer, namely—H12, S17, F18, N19, S21, P103, L104, Y105, W106, F107, T148, T149, G150, G151, Y156, E194, and R201. YB-537 binds to the catalytic site through a series of hydrophobic and hydrogen bonds with both FAD and amino acids from both QR2 monomers, in a manner unique to it (FIG. 3B). Specifically, YB-537 forms 6 contacts to G150, G151, M155 and a hydrogen bond with N162 from one monomer (A) and 8 contacts to F127, 1129, F132, and F179 from the other monomer (B).

5×FAD mice [1] = test: Open field in 5×FAD mice; assay type: in vivo, mouse
Method: Mice were individually placed within a cage and taken to a dimly lit room containing an open field arena 50×50 cm in size. They were given 10 min prior to being placed within the arena, where for a period of 5 min they were allowed to explore. Two weeks later, this was repeated. […] The floor was either white or black, depending on mouse coat color, to allow automatic analysis of movement parameters, apart from rearing which was manually counted.

5×FAD mice [2] = test: Immunohistochemistry of CA1 in 5×FAD mice (4-HNE, amyloid β, p-Tau, Iba1); assay type: in vivo, mouse; settings: 1 month drinking
Method: A week after the completion of all behavioral experiments, 5×FAD mice were anesthetized with isoflurane, and once fully anesthetized, were transcardially perfused with 4% paraformaldehyde (PFA), dilutes in […] phosphate buffered saline (PBS, Sigma-Aldrich). Brains were then briefly removed and placed in chilled, 4% PFA for 48 h, followed by immersion in 30% sucrose in 0.1 M PBS for a further 48 h. Brains were then stored at −80° C., until they were sliced into 40 μm coronal sections using a Leica CM 1950 cryostat. Slices were then washed ×3 in PBS and blocked for 1 h at RT using 10% normal donkey serum (DNS) and 0.2% triton (Sigma-Aldrich) in PBS. Antibodies, including 4-HNE (1:500, AbCam, ab48506), Iba1 (1:2,000, AbCam, ab5076), phospho-tau (1:1,000, Thermo, MN1020) and amyloid R (1:1,000, AbCam, ab201060) diluted in PBS with 10% DNS were incubated at 4° C. overnight. The next day, the slices were washed ×3 times in PBS, and secondary antibodies including donkey anti goat Alexa Fluor 568 (AbCam, ab175704), donkey anti-mouse Cy 5 (Jackson Immuno Research, 715-175-151) and donkey anti-rabbit DyLight 488 (AbCam, ab98488) all diluted 1:500 in PBS with 1% BSA, were applied to the slices at RT for 2 h. Following the incubation, the slices were washed ×3 times in PBS, mounted onto glass slides, were uniformly covered in DAPI containing Vectashield (H-1200) and coverslips were added. Images were then taken using a confocal microscope (Olympus IX83), with identical acquisition parameters across every sample per antibody. Three slices were used per mouse per antibody, with images taken of dorsal CA1 (Bregma: −1.58 mm to −2.30 mm; with each antibody having a slice from anterior, medial and posterior regions of this range) using a ×20 objective, acquiring two 800×800 pixel images over as many Z levels possible per slice (Z-stack of the whole section). Analysis of the images was done blind, using Imaris (Bitplane) software. Surface reconstruction module was used to extract the data as volumes and signal intensities. Marker volume or intensity were normalized to the corresponding brain volume. This was done in order to normalize the marker volumes to variations in Z-stack volumes and/or changes to shape and size that needed to be performed during analysis due to debris, vasculature, corpus callosum elimination, or any other obstructions or changes in shape. The normalized value was averaged for each triplicate.
Following the completion of behavioral experiments, the inventors wished to assess brain pathologies associated with AD present in the 5×FAD mice used. Therefore, 5 days following the completion of the last behavioral experiment, and 1 month following the start of YB-537 consumption, all the mice were sacrificed and coronal sections of their fixed brains were made and used for immunohistochemistry. Since the CA1 region of the hippocampus is affected early on in the pathogenesis of AD, and this brain region is involved in the behavioral paradigms used here, the inventors acquired images of CA1. This was done with an Olympus IX83 confocal microscope using the same settings, antibodies and exposures (all slices and samples were prepared by the same experimenter and all images taken by the same experimenter) in all mice and a separate blind experimenter, unaware of the experimental conditions or details, measured and analyzed the signal detected using Imaris (Bitplane) software (see methods). For each mouse, three coronal sections were used per antibody. In each section, the same region of CA1 was acquired, using the same image frame size and resolution, at all possible depths of the section (Z-stack of the whole section), to allow measurement of the fluorescent antibody marker volume, which was normalized to the brain volume from which it was taken. First, the inventors measured oxidative stress, as indicated by lipid peroxidation product, 4-Hydroxynonenal (4-HNE, antibody: AbCam, ab48506). […]

in vitro = settings: human
Method: (§1) THLE-2 (CRL-2706™) were grown in the BEGM Bullet Kit (CC-3170) from Lonza. Besides the additives contained in the kit, the medium was further supplemented with 5 ng/mL EGF (Sigma), 70 ng/mL phosphoethanolamine (Sigma) and 10% FBS (Biological Industries). The plates for the THLE-2 needed to be pre-coated with a mixture of 0.01 mg/mL fibronectin, 0.05 mg/mL of PureCol™ EZ Gel Solution (Sigma) and 0.01 mg/mL of BSA dissolved in BEBM medium (Lonza). The coating medium was aspirated before seeding.
(§2) THLE-2 cells were exposed to the compounds in a 9-point, 2-fold dilution dose response series with a 100 μM as upper limit, for 72 h. Following the 72 h of exposure to the test compounds, cell viability was determined by measuring the concentration of cellular ATP (CellTiter Glo, Promega). The luminescence signal was measured on a Pherastar FS multi-mode plate reader (BMG Labtech). Each data point was tested in a triplicate.
(§3) First, toxicity was assessed in an ATP depletion assay, using THLE-2 cells following a 72 h exposure to a dose response of each of the tested compounds.

5×FAD mice [3] = test: Novel object recognition in 5×FAD mice; settings: 5×FAD males
Method: Following the first exploration of the open field arena (described above), mice were returned to the same arena the next day, while the arena now contained two identical objects. Mice were allowed to explore the objects and the arena 3 times for 10 min, with an inter trial interval of 10 min. The following day one of the objects was replaced with a novel object, and the mice were returned to the arena and allowed to explore for 10 min. Mouse movement, exploration and nuzzling was automatically recorded with an Ikegami ICD-49E camera with EthoVision 14 (Noldus Information Technology). Discrimination of the novel object was assessed by calculating (time exploring novel object−time exploring familiar object)/(time exploring novel object+time exploring familiar object).

[4] = Cell toxicity assay (ATP depletion, CellTiter Glo); settings: human
Method: as §1, §2, §3

SMILES: Cc1ccc(-c2cn3cccc(C)c3n2)cc1S(=O)(=O)N1CCNCC1 [YB-537, 8-methyl-2-(4-methyl-3-(piperazin-1-ylsulfonyl)phenyl)imidazo[1,2-a]pyridine hydrochloride]
- solubility in water (Solubility in water): complete solution
- average velocity (5×FAD mice [1]; 5×FAD both sexes): 10.9 ± 0.800 cm/s
- hind-limb rearing frequency (5×FAD mice [1]; 5×FAD both sexes): 35.72±3.292
- maximum movement bout duration (5×FAD mice [1]; 5×FAD both sexes): 8.061 ± 1.322 s
- meandering (5×FAD mice [1]; 5×FAD both sexes): 733.4±42.8 deg/cm
- proportion of time moving (5×FAD mice [1]; 5×FAD both sexes): 81.44±1.134%
- total distance traveled (5×FAD mice [1]; 5×FAD both sexes): 3244±237.9 cm
- total movement duration (5×FAD mice [1]; 5×FAD both sexes): 244.3 ± 3.402 s
- average velocity (5×FAD mice [1]; 5×FAD females): 12.03 ± 1.625 cm/s
- hind-limb rearing frequency (5×FAD mice [1]; 5×FAD females): 35.29±4.894
- maximum movement bout duration (5×FAD mice [1]; 5×FAD females): 9.677 ± 3.012 s
- meandering (5×FAD mice [1]; 5×FAD females): 696.3±65.26 deg/cm
- proportion of time moving (5×FAD mice [1]; 5×FAD females): 81.84±1.856%
- total distance traveled (5×FAD mice [1]; 5×FAD females): 3581±484.5 cm
- total movement duration (5×FAD mice [1]; 5×FAD females): 245.5 ± 5.568 s
- average velocity (5×FAD mice [1]; 5×FAD males): 10.01 ± 0.611 cm/s
- hind-limb rearing frequency (5×FAD mice [1]; 5×FAD males): 36.06±4.703
- maximum movement bout duration (5×FAD mice [1]; 5×FAD males): 6.804 s
- meandering (5×FAD mice [1]; 5×FAD males): 762.2±58.17 deg/cm
- proportion of time moving (5×FAD mice [1]; 5×FAD males): 81.13±1.5%
- total distance traveled (5×FAD mice [1]; 5×FAD males): 2983±179.3 cm
- total movement duration (5×FAD mice [1]; 5×FAD males): 243.4 ± 4.5 s
- 4-HNE volume normalized to μm^3 of brain, CA1 (5×FAD mice [2]; 5×FAD females): 0.053±0.005
- 4-HNE volume normalized to μm^3 of brain, CA1 (5×FAD mice [2]; 5×FAD males): 0.053±0.005
- Amyloid β volume normalized to μm^3 of brain, CA1 (5×FAD mice [2]; 5×FAD males): 0.038±0.004
- Volume of Iba1 normalized to μm^3 of brain, CA1 (5×FAD mice [2]; 5×FAD males): 0.038±0.003
- Volume of p-Tau normalized to μm^3 of brain, CA1 (5×FAD mice [2]; 5×FAD males): 0.064±0.006
- sum of the intensity of Iba1 positive signal normalized to μm^3 of brain, CA1 (5×FAD mice [2]; 5×FAD males): 74.09±6.198
- Volume of Iba1 normalized to μm^3 of brain, CA1 (5×FAD mice [2]; 5×FAD total population): 0.032±0.002
- sum of the intensity of Iba1 positive signal normalized to μm^3 of brain, CA1 (5×FAD mice [2]; 5×FAD total population): 63.57±5.251
- IC50 at 72 h (in vitro): > 99 µM
- novel object discrimination (5×FAD mice [3]): 0.06432±0.1285

SMILES: Cc1cccn2cc(-c3cccc(S(=O)(=O)N4CCC(C)CC4)c3)nc12 [YB-800]
- IC50 at 72 h [4]: 78.4 µM
